Laboratory results: patent publication US8178523B2, “Compounds for the treatment of hepatitis C” (Bristol-Myers Squibb Company, priority 2008, dated 2012)

Legend:
[1] = target: T1, HCV NS5B RdRp (Hepatitis C virus genotype 1b, UniProt Q9WMX2); assay: HCV NS5B RdRp enzyme assay; format: biochemical; conditions: HCV NS5B genotype 1b, standard or modified RdRp assay not given
T1 construct: The protein was expressed with an 18 amino acid C-terminal truncation to enhance the solubility; made in house; host or cells: E. coli BL21(DE3)
Experimental: HCV NS5B RdRp cloning, expression, and purification. The cDNA encoding the NS5B protein of HCV, genotype 1b, was cloned into the pET21a expression vector. The protein was expressed with an 18 amino acid C-terminal truncation to enhance the solubility. The E. coli competent cell line BL21(DE3) was used for expression of the protein. Cultures were grown at 37° C. for ˜4 hours until the cultures reached an optical density of 2.0 at 600 nm. The cultures were cooled to 20° C. and induced with 1 mM […]. Fresh ampicillin was added to a final concentration of 50 μg/ml and the cells were grown overnight at 20° C.
Cell pellets (3 L) were lysed for purification to yield 15-24 mgs of purified NS5B. The lysis buffer consisted of 20 mM Tris-HCl, pH 7.4, 500 mM NaCl, 0.5% triton X-100, 1 mM DTT, 1 mM EDTA, 20% glycerol, 0.5 mg/ml lysozyme, 10 mM MgCl2, 15 ug/ml deoxyribonuclease I, and Complete TM protease inhibitor tablets (Roche). After addition of the lysis buffer, frozen cell pellets were resuspended using a tissue homogenizer. To reduce the viscosity of the sample, aliquots of the lysate were sonicated on ice using a microtip attached to a Branson sonicator. The sonicated lysate was centrifuged at 100,000×g for 1 hr at 4° C. and filtered through a 0.2 μm filter unit (Corning).
The protein was purified using two sequential chromatography steps: Heparin sepharose CL-6B and polyU sepharose 4B (Pharmacia). The chromatography buffers were identical to the lysis buffer but contained no lysozyme, deoxyribonuclease I, MgCl2 or protease inhibitor and the NaCl concentration of the buffer was adjusted according to the requirements for charging the protein onto the column. Each column was eluted with a NaCl gradient which varied in length from 5-50 column volumes depending on the column type. After the final chromatography step, the resulting purity of the enzyme is >90% based on SDS-PAGE analysis. The enzyme was aliquoted and stored at −80° C.
Standard HCV NS5B RdRp enzyme assay. HCV RdRp genotype 1b assays were run in a final volume of 60 μl in 96 well plates (Corning 3600). The assay buffer is composed of 20 mM Hepes, pH 7.5, 2.5 mM KCl, 2.5 mM MgCl2, 1 mM DTT, 1.6 U RNAse inhibitor (Promega N2515), 0.01 mg/ml BSA (Sigma B6917), and 2% glycerol. All compounds were serially diluted (3-fold) in DMSO and diluted further in water such that the final concentration of DMSO in the assay was 2%. HCV RdRp genotype 1b enzyme was used at a final concentration of 28 nM. A polyA template was used at 6 nM, and a biotinylated oligo-dT12 primer was used at 180 nM final concentration. Template was obtained commercially (Amersham 27-4110). Biotinylated primer was prepared by Sigma Genosys. 3H-UTP was used at (0.29 μM total UTP). Reactions were initiated by the addition of enzyme, incubated at 30° C. for 60 min, and stopped by adding 25 μl of 50 mM EDTA containing SPA beads (4 μg/μl, Amersham RPNQ 0007). Plates were read on a Packard Top Count NXT after >1 hr incubation at room temperature.
Modified HCV NS5B RdRp enzyme assay. A modified enzyme assay was performed essentially as described for the standard enzyme assay except for the following: The biotinylated oligo dT12 primer was precaptured on streptavidin-coated SPA beads by mixing primer and beads in assay buffer and incubating at room temperature for one hour. Unbound primer was removed after centrifugation. The primer-bound beads were resuspended in 20 mM Hepes buffer, pH 7.5 and used in the assay at final concentrations of 20 nM primer and […] beads. Order of addition in the assay: enzyme (1.75 nM) was added to diluted compound followed by the addition of a mixture of template (0.36 nM), 3H-UTP (0.6 μCi, 0.29 μM), and primer-bound beads, to initiate the reaction; concentrations given are final. Reactions were allowed to proceed for 4 hours at 30° C.
IC50 values for compounds were determined using seven different [I]. […]

[2] = tested on: HCV replicon cells; assay: HCV replicon FRET / luciferase assay; format: cell-based; conditions: Hepatitis C virus, 50% reduction in FRET or luciferase activity
Experimental: FRET Assay Preparation. The HCV FRET screening assay was performed in 96-well cell culture plates. The FRET peptide (Anaspec, Inc.) (Taliani et al., Anal. Biochem. 1996, 240, 60-67) contains a fluorescence donor, EDANS, near one end of the peptide and an acceptor, DABCYL, near the other end. The fluorescence of the peptide is quenched by […] resonance energy transfer (RET) between the donor and the acceptor, but as the NS3 protease cleaves the peptide the products are released from RET quenching and the fluorescence of the donor becomes apparent. The assay reagent was made as follows: 5× cell Luciferase cell culture lysis reagent from Promega (#E153A) diluted to 1× with dH2O, NaCl added to 150 mM final, the FRET peptide diluted to 20 μM final from a 2 mM stock.
To prepare plates, HCV replicon cells, with or without a Renilla luciferase reporter gene, were trypsinized and plated in a 96-well plate with titrated test compounds added in columns 3 through 12; columns 1 and 2 contained a control compound (HCV control inhibitor), and the bottom row contained cells with DMSO only. The plates were then placed in a CO2 incubator at 37° C.
Assays. Subsequent to addition of the test compounds described above (FRET Assay Preparation), at various times the plate was removed and Alamar blue solution (Trek Diagnostics, #00-100) was added to measure cellular toxicity. After reading in a Cytoflour 4000 instrument (PE Biosystems), plates were rinsed with PBS and then used for FRET assay by the addition of 30 ul of the FRET peptide assay reagent described above (FRET Assay Preparation) per well. The plate was then placed into the Cytoflour 4000 instrument which had been set to 340 excite/490 emission, automatic mode for up to 20 cycles and the plate read in a kinetic mode. Typically, the signal to noise using an endpoint analysis after the reads was at least three-fold. Alternatively, after Alamar blue reading, plates were rinsed with PBS, then used for luciferase assay using the Promega Dual-Glo Luciferase Assay System or the Promega EnduRen Live Cell Substrate assay.
Compound analysis was performed by quantification of the relative HCV replicon inhibition and the relative cytotoxicity values. To calculate cytoxicity values, the average Alamar Blue fluorescence signals from the control wells were set as 100% non-toxic. The individual signals in each of the compound test wells were then divided by the average control signal and multiplied by 100% to determine […]. To calculate the HCV replicon inhibition values, an average background value was obtained from the two wells containing the highest amount of HCV control inhibitor at the end of the assay period. These numbers were similar to those obtained from naïve Huh-7 cells. The background numbers were then subtracted from the average signal obtained from the control wells and this number was used as 100% activity. The individual signals in each of the compound test wells were then divided by the averaged control values after background subtraction and multiplied by 100% to determine percent activity. EC50 values were calculated as the concentration which caused a 50% reduction in FRET or luciferase activity. The two numbers generated for the compound plate, percent cytoxicity and percent activity, were used to determine compounds of interest for further analysis.

T1 sequence (Q9WMX2 2420-2992): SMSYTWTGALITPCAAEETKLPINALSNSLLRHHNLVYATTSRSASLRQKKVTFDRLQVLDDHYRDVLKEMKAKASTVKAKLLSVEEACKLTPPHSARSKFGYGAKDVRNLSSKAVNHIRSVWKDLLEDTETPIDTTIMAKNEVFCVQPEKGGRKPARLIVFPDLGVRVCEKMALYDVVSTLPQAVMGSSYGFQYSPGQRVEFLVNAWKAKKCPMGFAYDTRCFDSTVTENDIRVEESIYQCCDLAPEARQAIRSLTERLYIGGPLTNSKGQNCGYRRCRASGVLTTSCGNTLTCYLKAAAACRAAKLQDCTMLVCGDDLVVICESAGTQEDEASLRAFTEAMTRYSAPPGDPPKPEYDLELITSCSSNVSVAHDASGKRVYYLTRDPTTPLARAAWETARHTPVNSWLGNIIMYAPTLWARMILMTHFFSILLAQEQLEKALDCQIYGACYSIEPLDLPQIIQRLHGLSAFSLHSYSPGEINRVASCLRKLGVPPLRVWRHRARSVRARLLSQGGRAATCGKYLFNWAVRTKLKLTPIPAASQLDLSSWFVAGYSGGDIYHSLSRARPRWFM

Row | SMILES | IC50 ([1]; class symbols) [nM] | EC50 ([2]; class symbols) [nM] | IC50 ([1]; numeric values) [nM] | EC50 ([2]; numeric values) [nM]
1 | COc1ccc2c(c1)C1CC1(C(=O)N1CCC(c3nc4cc(C)ccc4[nH]3)CC1)Cn1c-2c(C2CCCCC2)c2ccc(C(=O)NS(=O)(=O)N(C)C)cc21 (stereo not shown) | 2 to 500 | 2 to 500 | – | –
2 | COc1ccc2c(c1)C=C(C(=O)N1CCC(c3nc(C)no3)CC1)Cn1c-2c(C2CCCCC2)c2ccc(C(=O)NS(=O)(=O)N(C)C)cc21 | – | – | 90 | 230
3 | COc1ccc2c(c1)C1CC1(C(=O)N1CCC(c3noc4cc(F)ccc34)CC1)Cn1c-2c(C2CCCCC2)c2ccc(C(=O)N[S+]([O-])N(C)C)cc21 (stereo not shown) | 2 to 500 | 2 to 500 | – | –
4 | COc1ccc2c(c1)C1CC1(C(=O)N1CCC(c3nnc(C)o3)CC1)Cn1c-2c(C2CCCCC2)c2ccc(C(=O)NS(=O)(=O)C(C)C)cc21 (stereo not shown) | – | – | 70 | 110
5 | COc1ccc2c(c1)[C@@H]1C[C@]1(C(=O)N1CCC(c3nnc(C)o3)CC1)Cn1c-2c(C2CCCCC2)c2ccc(C(=O)NS(=O)(=O)N(C)C)cc21 | – | – | 30 | 30
6 | CCc1nnc(C2CCN(C(=O)C34CC3c3cc(OC)ccc3-c3c(C5CCCCC5)c5ccc(C(=O)NS(=O)(=O)C(C)C)cc5n3C4)CC2)o1 (stereo not shown) | 2 to 500 | 2 to 500 | – | –
7 | COc1ccc2c(c1)C1CC1(C(=O)N1CCC(c3c[nH]c4ccccc34)CC1)Cn1c-2c(C2CCCCC2)c2ccc(C(=O)NS(=O)(=O)C(C)C)cc21 (stereo not shown) | 2 to 500 | 2 to 500 | – | –
8 | COc1ccc2c(c1)C1CC1(C(=O)N1CCC(n3cc(-c4ccccc4Cl)cn3)CC1)Cn1c-2c(C2CCCCC2)c2ccc(C(=O)NS(=O)(=O)N(C)C)cc21 (stereo not shown) | 2 to 500 | 2 to 500 | – | –
9 | COc1ccc2c(c1)C1CC1(C(=O)N1CCC(c3nnc(-c4ccccc4)o3)CC1)Cn1c-2c(C2CCCCC2)c2ccc(C(=O)NS(=O)(=O)N(C)C)cc21 (stereo not shown) | 2 to 500 | 2 to 500 | – | –
10 | COc1ccc2c(c1)C1CC1(C(=O)N1CCC(c3nnc(C)o3)CC1)Cn1c-2c(C2CCCCC2)c2ccc(C(=O)NS(=O)(=O)N(C)C)cc21 (stereo not shown) | – | – | 20 | 50
11 | COc1ccc2c(c1)C1CC1(C(=O)N1CCC(c3cc(-c4ccco4)n[nH]3)CC1)Cn1c-2c(C2CCCCC2)c2ccc(C(=O)NS(=O)(=O)N(C)C)cc21 (stereo not shown) | 2 to 500 | 2 to 500 | – | –
12 | COc1ccc2c(c1)C1CC1(C(=O)N1CCC(n3cc(-c4ccccc4)cn3)CC1)Cn1c-2c(C2CCCCC2)c2ccc(C(=O)NS(=O)(=O)N(C)C)cc21 (stereo not shown) | 2 to 500 | 2 to 500 | – | –
13 | COc1ccc2c(c1)C=C(C(=O)N1CCCCC1c1nccs1)Cn1c-2c(C2CCCCC2)c2ccc(C(=O)NS(=O)(=O)N(C)C)cc21 (stereo not shown) | – | – | 100 | 460
14 | COc1ccc2c(c1)C1CC1(C(=O)N1CCC(c3nc(C)no3)CC1)Cn1c-2c(C2CCCCC2)c2ccc(C(=O)NS(=O)(=O)N(C)C)cc21 (stereo not shown) | – | – | 30 | 90
15 | CCCc1noc(C2CCN(C(=O)C34CC3c3cc(OC)ccc3-c3c(C5CCCCC5)c5ccc(C(=O)NS(=O)(=O)N(C)C)cc5n3C4)CC2)n1 (stereo not shown) | 2 to 500 | 2 to 500 | – | –
16 | CCOC(=O)c1coc(C2CCN(C(=O)C34CC3c3cc(OC)ccc3-c3c(C5CCCCC5)c5ccc(C(=O)NS(=O)(=O)N(C)C)cc5n3C4)CC2)n1 (stereo not shown) | 2 to 500 | 2 to 500 | – | –
17 | COc1ccc2c(c1)C1CC1(C(=O)N1CCC(n3cc(-c4ccc(Cl)cc4)cn3)CC1)Cn1c-2c(C2CCCCC2)c2ccc(C(=O)NS(=O)(=O)N(C)C)cc21 (stereo not shown) | 2 to 500 | 2 to 500 | – | –
18 | COc1ccc2c(c1)C=C(C(=O)N1CCC(c3nncn3C)CC1)Cn1c-2c(C2CCCCC2)c2ccc(C(=O)NS(=O)(=O)N(C)C)cc21 | 2 to 500 | 2 to 500 | – | –
19 | COc1ccc2c(c1)C1CC1(C(=O)N1CCCCC1c1nccs1)Cn1c-2c(C2CCCCC2)c2ccc(C(=O)NS(=O)(=O)N(C)C)cc21 (stereo not shown) | – | – | 70 | 290
20 | COc1ccc2c(c1)C1CC1(C(=O)N1CCC(n3c(C)nnc3C)CC1)Cn1c-2c(C2CCCCC2)c2ccc(C(=O)NS(=O)(=O)N(C)C)cc21 (stereo not shown) | 2 to 500 | 2 to 500 | – | –
21 | COc1ccc(-c2cnn(C3CCN(C(=O)C45CC4c4cc(OC)ccc4-c4c(C6CCCCC6)c6ccc(C(=O)NS(=O)(=O)N(C)C)cc6n4C5)CC3)c2)cc1 (stereo not shown) | 2 to 500 | 2 to 500 | – | –
22 | COc1ccc2c(c1)C1CC1(C(=O)N1CCC(c3cc4ccccc4o3)CC1)Cn1c-2c(C2CCCCC2)c2ccc(C(=O)NS(=O)(=O)C(C)C)cc21 (stereo not shown) | 2 to 500 | > 500 | – | –
23 | COc1ccc2c(c1)C1CC1(C(=O)N1CCC(c3nc4ccccc4o3)CC1)Cn1c-2c(C2CCCCC2)c2ccc(C(=O)NS(=O)(=O)N(C)C)cc21 (stereo not shown) | 2 to 500 | 2 to 500 | – | –
24 | COc1ccc2c(c1)C1CC1(C(=O)N1CCC(c3nnc(C(C)C)o3)CC1)Cn1c-2c(C2CCCCC2)c2ccc(C(=O)NS(=O)(=O)C(C)C)cc21 (stereo not shown) | 2 to 500 | 2 to 500 | – | –
25 | COc1ccc2c(c1)C1CC1(C(=O)N1CCC(c3nc(C)no3)CC1)Cn1c-2c(C2CCCCC2)c2ccc(C(=O)NS(=O)(=O)C(C)C)cc21 (stereo not shown) | – | – | 30 | 100
26 | COc1ccc2c(c1)C1CC1(C(=O)N1CCC(c3nnc(N)s3)CC1)Cn1c-2c(C2CCCCC2)c2ccc(C(=O)NS(=O)(=O)N(C)C)cc21 (stereo not shown) | – | – | 60 | 190
